The subject of data set [1] is equine liver microsomal P450 forming gamma-hydroxy phenylbutazone. The experiment in a line: Cytochrome P450 inhibition assay with PBZ in equine liver microsomes. Type of data set: in vitro ADME. The following applies: horse, equine liver microsomes, pH 7.4.
For another data set, the system named is recombinant CYP3A97. The data set can be described thus: Cytochrome P450 inhibition assay with PBZ and recombinant CYP3A97. The note with it: recombinant CYP3A97, inhibitor 10 μM, PBZ 400 μM.
Data set [2] in a line: Phenylbutazone metabolism in equine liver microsomes. Type of data set: in vitro ADME. The note with it: metabolite formation from PBZ.
In data set [3] the test system is equine CYP3A97. The experiment in a line: Phenylbutazone metabolism to oxyphenbutazone by recombinant equine CYP3A97. It counts as in vitro ADME. The following applies: oxyphenbutazone formation from PBZ.
Data set [4] is described as follows: Flunixin meglumine metabolism to 5-OH flunixin in equine liver microsomes. Type of data set: in vitro ADME. The note with it: for Vmax (or Vmax1) / Ki: 5-OH flunixin formation; for Ki: substrate inhibition model.
For the next data set, the system named is equine CYP1A1. The note with it: 5-OH flunixin formation.
The test system of the next data set is equine CYP3A93. The following applies: 5-OH flunixin formation.
Data set [5] deals with equine CYP3A97.
The nature of data set [6]: Cytochrome P450 inhibition assay with PBZ in equine liver microsomes. It counts as in vitro ADME. The note with it: inhibitor 10 μM, PBZ 400 μM.
The next data set has as its system CYP2C92. The data set can be described thus: Incubation of FM with recombinant equine CYP2C92. Type of data set: in vitro ADME.
Setting [7] is: read-out: Km (or Km1), 5-OH flunixin formation.

Each structure is given as a SMILES string. Like-named read-outs stand apart in the source and are kept apart here.

`O=c1cc(-c2ccccc2)oc2c1ccc1ccccc12` [alpha-naphthoflavone] had an inhibition at 30 min, 10 μM in data set [1] of 79%. In addition, the “Increased production of oxyphenbutazone compared to control” value in the data set on recombinant CYP3A97 was found to be 150%.
In the case of `CCCCC1C(=O)N(c2ccccc2)N(c2ccc(O)cc2)C1=O` (stereo not shown) [Oxyphenbutazone, oxyphenbutazone], the Best fit model result (in [2]; with equine CYP3A97 [3]) was “Michaelis-Menten” in each case. Moreover, the values for the Vmax (in [2] (horse 1); in [2] (horse 2); with equine CYP3A97 [3]) were 1.72 pmol/min/pmol P450, 0.279 pmol/min/pmol P450 and 2.66 pmol/min/pmol P450, respectively.
Consider `Cc1c(Nc2ncc(O)cc2C(=O)O)cccc1C(F)(F)F` [5-OH flunixin, 5-hydroxy-flunixin], for which the Best fit model entry in data set [4] (5-OH flunixin formation from FM) is “Substrate Inhibition”; in the data set with equine CYP1A1 (CYP1A1) it was “Biphasic”; in the data set with equine CYP3A93 (CYP3A93) it was “Biphasic”; with equine CYP3A94 (5-OH flunixin formation) it was “Michaelis-Menten”; in the data set with equine CYP3A95 (5-OH flunixin formation), “Michaelis-Menten”; in the data set on equine CYP3A97 [5] (5-OH flunixin formation), “Michaelis-Menten”. The “Vmax (or Vmax1)” value came out at 0.613 pmol/min/pmol P450 in data set [4] (horse 1); 0.803 pmol/min/pmol P450 in [4] (horse 2); 1.39 pmol/min/pmol P450 with equine CYP1A1 (CYP1A1, high-affinity phase); 0.148 pmol/min/pmol P450 in the data set on equine CYP3A93 (CYP3A93, high-affinity phase); 1.39 pmol/min/pmol P450 with equine CYP3A94 (5-OH flunixin formation); 0.675 pmol/min/pmol P450 in the data set on equine CYP3A95 (5-OH flunixin formation). Also, in the data set on equine CYP3A97 [5] (5-OH flunixin formation), the “Vmax (or Vmax1)” value worked out at 0.450 pmol/min/pmol P450. Moreover, the Km worked out at 22.6 µM in data set [4] (read-out: Km (or Km1), 5-OH flunixin formation, horse 1); 13.1 µM in data set [4] (read-out: Km (or Km1), 5-OH flunixin formation, horse 2); 495 µM in the data set on equine CYP1A1 (read-out: Km (or Km1), CYP1A1, high-affinity phase); 37.6 µM in the data set with equine CYP3A93 (read-out: Km (or Km1), CYP3A93, high-affinity phase); 828 µM in the data set with equine CYP3A94 (setting [7]); 928 µM in the data set with equine CYP3A95 (setting [7]). Further, the Km in the data set on equine CYP3A97 [5] (setting [7]) turned out to be 4.07 µM. Further, the Ki in data set [4] (horse 1) stood at 710 µM; in data set [4] (horse 2), 1190 µM. The Vmax2 is on record as 0.665 pmol/min/pmol P450 with equine CYP1A1 (CYP1A1, low-affinity phase) and 2.32 pmol/min/pmol P450 in the data set on equine CYP3A93 (CYP3A93, low-affinity phase). In addition, the Km2 came out at 546.6 µM in the data set with equine CYP1A1 (CYP1A1, second phase) and 1539.8 µM in the data set on equine CYP3A93 (CYP3A93, second phase).
`CC(O)CCC1C(=O)N(c2ccccc2)N(c2ccccc2)C1=O` (stereo not shown) [Gamma-hydroxy phenylbutazone, gamma-hydroxy phenylbutazone]: the Best fit model entry in [2] was “Michaelis-Menten”. For the same compound, the Km in data set [2] (horse 1) amounted to 29.2 µM; in [2] (horse 2), 79.3 µM. Also, the Vmax turned out to be 1.56 pmol/min/pmol P450 in data set [2] (horse 1) and 0.218 pmol/min/pmol P450 in data set [2] (horse 2).
With `CC(C)(O)c1ccccc1CC[C@@H](SCC1(CC(=O)O)CC1)c1cccc(/C=C/c2ccc3ccc(Cl)cc3n2)c1` [montelukast], the “Oxyphenbutazone production decreased in microsomal incubations” value in data set [6] worked out at 53%.
For `Cc1c(Nc2ncccc2C(=O)O)cccc1C(F)(F)F` [FM, flunixin meglumine], in the data set on CYP2C92, the “Generation of metabolites by CYP2C92” value was “did not generate any measurable metabolites”.
